Source: patent publication US12404242B2, “Compositions and methods for making and using small molecules in the treatment of cancer” (Reglagene, Inc., priority 2021, dated 2025)
Converted amounts (≈) assume the structure as drawn. Where two headings read alike, the source gives them in different places.

Legend:
U87 cells = assay: Cell viability (AlamarBlue), U87 glioblastoma cells; format: cell-based, human; conditions: Homo sapiens, U-87 MG, 72 h, 72 hours of treatment
Method in brief: (§1)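 Viability is read by AlamarBlue fluorescence after cells, seeded 24 hours earlier, are treated for 72 hours with a concentration series of compound. Signals are expressed relative to no-treatment controls before EC50 fitting.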

[1] = Kinetic solubility in aqueous PBS buffer (HPLC-MS); format: physicochemical; conditions: kinetic from dmso stock, DMSO stock mixed with aqueous PBS buffer, filtered, read-out: Kinetic Solubility
Method in brief: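 A concentrated DMSO stock was mixed with aqueous PBS buffer and filtered. The filtrate was quantified against an HPLC-MS calibration curve.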

tubulin [2] = assay: Tubulin polymerization assay; format: biochemical; conditions: 5 uM (FIG. 41A, 41C) or 1 uM (FIG. 41B)
Procedure: FIG. 41A-41C represent exemplary experiments illustrating inhibition of tubulin polymerization. FIG. 41A illustrates effects of compounds 19, 73, 86, 93 and 94 at 5 uM concentration. FIG. 41B illustrates effects of compounds 93, 94, 95 and 96 at 1 uM concentration.
FIG. 41C illustrates effects of compounds 73, 86, 87 and 88 at 5 uM concentration in accordance with certain embodiments of the present disclosure. Colchicine and vincristine are positive controls.
FIG. 42A-42B represent exemplary experiments illustrating inhibition of tubulin polymerization. FIG. 42A illustrates effects of compound 19 at 0.3, 1, 3 and 6 uM concentrations.
FIG. 42B illustrates effects of compound 73 at […] concentration in accordance with certain embodiments of the present disclosure. Colchicine and nocodazole are positive controls.
In another exemplary method, the effect of the compounds herein on tubulin polymerization was determined. FIG. 41A illustrates effects of compounds 19, 73, 86, 93 and 94 at 5 uM concentration, FIG. 41B illustrates effects of compounds 93, 94, 95 and 96 at 1 uM concentration, or FIG. 41C illustrates effects of compounds 87 and 88 at 5 uM concentration in accordance with certain embodiments of the present disclosure. Colchicine and vincristine are positive controls.
The dose dependent effect of compounds 19 and 73 on tubulin polymerization was also determined. FIG. 42A illustrates effects of compound 19 at 0.3, 1, 3 and 6 uM concentrations, and FIG. 42B illustrates effects of compound 73 at 0.1, 0.3, 1, 3 and 5 uM concentration in accordance with certain embodiments of the present disclosure. Colchicine and nocodazole are positive controls.

[3] = tested on: colchicine-site of tubulin; assay: Fluorescence-based colchicine competitive binding assay; conditions: 50 uM (FIG. 43)
Procedure: FIG. 43 represent fluorescence-based colchicine competitive binding assay with compounds 19, 73 and 93 at 50 uM concentration in accordance with certain embodiments of the present disclosure. Nocodazole (NOC) is positive control.
(§2) Microtubule-targeting agents that bind at the colchicine-site of tubulin are of interest in antitumoral therapy due to their action as anti-mitotics. […] Nocodazole was used as a positive control. […] Colchicine (COL) and nocodazole (NOC) are positive controls while vincristine (VINC) is negative control.

[4] = tested on: colchicine binding site (tubulin) in MCF7 cell lines; assay: N,N'-ethylene-bis(iodoacetamide) (EBI) competition assay in MCF7 cells; format: cell-based; conditions: MCF7 cell lines (FIG. 44)
From the text: FIG. 44 represent N,N′-ethylene-bis(iodoacetamide) (EBI) competition assay with compounds 19, 73 and 93 in MCF7 cell lines showing binding of compounds in colchicine binding site in accordance with certain embodiments of the present disclosure. Colchicine (COL) and nocodazole (NOC) are positive controls while vincristine (VINC) is negative control.
as §2

LN18 cells = assay: Cell viability (AlamarBlue), LN18 glioma cells; format: cell-based; conditions: Homo sapiens, LN-18, 72 hours of treatment
Procedure: (§3) In another exemplary method, half maximal effective concentration (EC50) was determined for some compounds and their isomers as disclosed herein in a variety of human cancer cell lines. In brief, cells from two prostate cancer cell lines (LNCaP, 22RV1), one glioblastoma cell line (U87), one breast cancer cell line (MCF7), a glioma cell line (LN18), a normal prostate cell line (RWPE1), and a glioblastoma cell line (T98G) were plated in a multi-well plate. After 24 hours, one of the compounds herein was added to the well at increasing concentrations. After 72 hours of treatment, cell viability was assessed using AlamrBlue® (Invitrogen) and fluorescence was read using the CLARIOstar Plus Multilabel Plate Reader (BMG Labtech). Samples were normalized to no treatment controls. EC50 values were determined using GraphPad Prism.

[5] = tested on: LN18 glioblastoma cancer cells; assay: Combination with Temozolomide, Bliss synergy in LN18 cells; format: cell-based; conditions: Temozolomide 0 to 1000 uM, compound 0.625 to 10 uM
Procedure: Synergy was calculated with the Bliss independence model. Compounds were combined at concentrations of 0 to 1000 uM for Temozolomide and 0.625 to 10 uM for compounds 19 and 59.

U87 glioblastoma cells = assay: Combination with ionizing radiation in U87 cells; format: cell-based; conditions: 2 Gy ionizing radiation and 0.04-0.3 uM compound; versus ionizing radiation alone
tubulin [6] = assay: Tubulin polymerization assay; format: biochemical; conditions: compound 19 at 0.3, 1, 3 and 6 uM; compound 73 at 0.1, 0.3, 1, 3 and 5 uM
22RV1 cells = assay: Cell viability (AlamarBlue), 22RV1 prostate cancer cells; format: cell-based, human; conditions: Homo sapiens, 22Rv1, 72 h, 72 hours of treatment
Method in brief: as §1

[7] = tested on: 22Rv1 prostate cancer cells; assay: Combination with Rabusertib, Bliss synergy in 22Rv1 cells; format: cell-based; conditions: Rabusertib 0 to 30 uM, compound 0.625 to 5 uM
Procedure: Synergy was calculated with the Bliss independence model. Compounds were combined at concentrations of 0 to 30 uM for Rabusertib and 0.625 to 5 uM for compounds 73 and 76.

T98G cells = assay: Cell viability (AlamarBlue), T98G glioblastoma cells; format: cell-based; conditions: Homo sapiens, 72 hours of treatment
Procedure: as §3

[8] = Plasma and brain levels in healthy mouse; format: in vivo; conditions: oral dose
From the text: FIG. 53A-53B represent an exemplary experiment illustrating concentration of Compound 98 in plasma after oral dose (FIG. 53A); FIG. 53B represents levels of Compound 98 in plasma and brain tissue after administration to a rodent model in accordance with certain embodiments of the present disclosure.
FIG. 53A illustrates concentrations of Compound 98 in healthy mouse plasma over time. FIG. 53B and Table 9 illustrates concentrations of Compound 98 in healthy mouse plasma and brain at 0.5, 1 and 2 hrs.

[9] = brain, read-out: Healthy Brain concentration
[10] = plasma, read-out: Plasma concentration

Row | SMILES | EC50 (U87 cells) | solubility kinetic [1] | effect on tubulin polymerization (tubulin [2]) | colchicine competitive binding assay result [3] | EBI competition assay result [4] | EC50 (LN18 cells) | Bliss Synergy value, combination with Temozolomide ([5]; LN18 cells, Bliss independence model) | effect of combination with Temozolomide on cancer cell viability [5] | cancer cell viability with ionizing radiation plus compound (U87 glioblastoma cells) | dose dependent effect on tubulin polymerization (tubulin [6]) | EC50 (22RV1 cells) | Bliss Synergy value, combination with Rabusertib ([7]; 22Rv1 cells, Bliss independence model) | effect of combination with Rabusertib on cancer cell viability [7] | EC50 (T98G cells) | concentration at 0.5 h [8, 9] | concentration at 1 h [8, 9] | concentration at 2 h [8, 9] | concentration at 0.5 h [8, 10] | concentration at 1 h [8, 10] | concentration at 2 h [8, 10]
1 | COC1CC(C(=O)NC(=O)Nc2ccc(C)c(Oc3nccs3)c2)C1 (stereo not shown) [Compound 93, 3-methoxy-N-((4-methyl-3-(thiazol-2-yloxy)phenyl)carbamoyl)cyclobutane-1-carboxamide] | 0.03 µM | 8.9 µM (≈ 3.22 µg/mL) | significantly inhibit tubulin polymerization | significantly inhibit microtubule assembly | inhibitors of EBI binding | – | – | – | – | – | – | – | – | – | – | – | – | – | – | –
2 | COC1CC(C(=O)NC(=O)Nc2ccc(Oc3ccc(Cl)cn3)c(C)c2)C1 (stereo not shown) [Compound 19, N-((4-((5-chloropyridin-2-yl)oxy)-3-methylphenyl)carbamoyl)-3-methoxycyclobutane-1-carboxamide] | – | 5.68 µM (≈ 2.21 µg/mL) | significantly inhibit tubulin polymerization | significantly inhibit microtubule assembly | inhibitors of EBI binding | 0.83 µM | 29.5 | synergistic decrease in cancer cell viability | reduced cancer cell viability relative to cells treated with ionizing radiation alone | significantly inhibit tubulin polymerization in a dose dependent manner | – | – | – | – | – | – | – | – | – | –
3 | COC1CC(C(=O)NC(=O)Nc2cc(C)c(Oc3ncc(Cl)cn3)c(F)c2)C1 (stereo not shown) [Compound 73, N-((4-((5-chloropyrimidin-2-yl)oxy)-3-fluoro-5-methylphenyl)carbamoyl)-3-methoxycyclobutane carboxamide] | 0.12 µM | – | significantly inhibit tubulin polymerization | significantly inhibit microtubule assembly | inhibitors of EBI binding | – | – | – | – | significantly inhibit tubulin polymerization in a dose dependent manner | 0.068 µM | 20.7 | synergistic decrease in cancer cell viability | – | – | – | – | – | – | –
4 | COC12CC(C(=O)NC(=O)Nc3ccc(C)c(Oc4ccccn4)c3)(C1)C2 [Compound 98, 3-methoxy-N-((4-methyl-3-(pyridin-2-yloxy)phenyl)carbamoyl)bicyclo[1.1.1]pentane-1-carboxamide] | 0.02 µM | – | – | – | – | 0.07 µM | – | – | – | – | – | – | – | 0.0189 µM | 230 ng/g | 234 ng/g | 257 ng/g | 424 ng/mL | 490 ng/mL | 399 ng/mL
